# In US11612603B1, “3-triazolyl methyl-1,3,5-triazine-2,4-dione compounds and preparation method and application thereof” (priority 2022, dated 2023):
# Legend:
# HepG2 cells = assay: In vitro cytotoxicity, MTT method, HepG2 cells; type: cell-based; settings: for HEPG2 cell viability: 24 h, MTT
# Experimental: (§1) HepG2, HEK293 and A549 cells were taken in logarithmic growth phase, digested with trypsin to prepare cell suspensions. The cell density was adjusted to 5×10^4 cells/mL, inoculating 180 μL per well in a sterile 96-well cell culture plate, incubating for 24 h at 37° C. in a 5% CO2 incubator. After the cells were attached to the bottom of the well plate, 20 μL of the drug solutions in a concentration gradient were added to each well, and 6 duplicate wells were set up in parallel, including blank group (no cells, no compounds) and control groups (no compounds). After incubating for 24 h at 37° C. in a 5% CO2 constant temperature incubator, 20 μL of 5 g/L MTT solution was added to each well for 4 h. After the incubation, the culture medium in the wells was gently aspirated, 100 μL of DMSO was added to each well, and the cells were shaken at low speed for 10 min on a shaker to fully dissolve the crystals to calculate cell viability. Cell viability (%)=(Sample Group GD Value−Blank Group GD Value)/(Control Group GD Value−Blank Group GD Value)
# SARS-CoV-2 3CL^pro = SARS-CoV-2 3CL^pro (Severe acute respiratory syndrome coronavirus 2 (2019-nCoV) (SARS-CoV-2), UniProt P0DTD1); assay: biochemical; settings: for IC50: 3CL^pro FRET; for inhibition at 0.0001 µM: Conc 0.1 nM; for inhibition at 0.0001 µM / inhibition at 0.001 µM / inhibition at 0.005 µM / inhibition at 0.01 µM / inhibition at 0.02 µM / inhibition at 0.03 µM / inhibition at 0.05 µM / inhibition at 0.1 µM / inhibition at 0.5 µM / inhibition at 1 µM: read-out: Inhibitory activity on 3CL^pro (inhibition rate); for inhibition at 0.001 µM: Conc 1 nM; for inhibition at 0.005 µM: Conc 5 nM; for inhibition at 0.01 µM: Conc 10 nM; for inhibition at 0.02 µM: Conc 20 nM; for inhibition at 0.03 µM: Conc 30 nM; for inhibition at 0.05 µM: Conc 50 nM; for inhibition at 0.1 µM: Conc 100 nM; for inhibition at 0.5 µM: Conc 500 nM; for inhibition at 1 µM: Conc 1000 nM
# HEK293 cells = assay: In vitro cytotoxicity, MTT method, HEK293 cells; type: cell-based; settings: for HEK293 cell viability: 24 h, MTT
# Experimental: as §1
# A549 cells = assay: In vitro cytotoxicity, MTT method, A549 cells; type: cell-based; settings: for A549 cell viability: 24 h, MTT
# Experimental: as §1
compound,measurement,setting,value
Cn1cc2cc(/N=c3\[nH]c(=O)n(Cc4cnn[nH]4)c(=O)n3Cc3cc(F)c(F)cc3F)c(Cl)cc2n1 [Compound 1],HEPG2 cell viability,HepG2 cells; 1.5625 nM,97.09%
same,HEPG2 cell viability,HepG2 cells; 3.125 nM,96.29%
same,HEPG2 cell viability,HepG2 cells; 6.25 nM,97.83%
same,HEPG2 cell viability,HepG2 cells; 12.5 nM,95.39%
same,HEPG2 cell viability,HepG2 cells; 25 nM,90.35%
same,HEPG2 cell viability,HepG2 cells; 50 nM,88.09%
same,HEPG2 cell viability,HepG2 cells; 100 nM,87.72%
same,HEPG2 cell viability,HepG2 cells; 200 nM,85.58%
same,HEPG2 cell viability,HepG2 cells; 400 nM,82.62%
same,inhibitory rate on HepG2 cells compared with positive drugs,HepG2 cells; at any concentration,lower than that of PF-07321332 and S-217622
same,IC50,SARS-CoV-2 3CL^pro,92.6 nM
same,inhibition at 0.0001 µM,SARS-CoV-2 3CL^pro,1.68%
same,inhibition at 0.001 µM,SARS-CoV-2 3CL^pro,2.35%
same,inhibition at 0.005 µM,SARS-CoV-2 3CL^pro,7.62%
same,inhibition at 0.01 µM,SARS-CoV-2 3CL^pro,10.9%
same,inhibition at 0.02 µM,SARS-CoV-2 3CL^pro,15.2%
same,inhibition at 0.03 µM,SARS-CoV-2 3CL^pro,20.8%
same,inhibition at 0.05 µM,SARS-CoV-2 3CL^pro,26.2%
same,inhibition at 0.1 µM,SARS-CoV-2 3CL^pro,59.3%
same,inhibition at 0.5 µM,SARS-CoV-2 3CL^pro,82.5%
same,inhibition at 1 µM,SARS-CoV-2 3CL^pro,96.2%
same,HEK293 cell viability,HEK293 cells; 1.5625 nM,99.03%
same,HEK293 cell viability,HEK293 cells; 3.125 nM,96.70%
same,HEK293 cell viability,HEK293 cells; 6.25 nM,94.02%
same,HEK293 cell viability,HEK293 cells; 12.5 nM,89.50%
same,HEK293 cell viability,HEK293 cells; 25 nM,86.03%
same,HEK293 cell viability,HEK293 cells; 50 nM,88.49%
same,HEK293 cell viability,HEK293 cells; 100 nM,84.87%
same,HEK293 cell viability,HEK293 cells; 200 nM,83.54%
same,HEK293 cell viability,HEK293 cells; 400 nM,81.17%
same,inhibitory rate on HEK293 cells compared with positive drugs,HEK293 cells; at any concentration,lower than that of PF-07321332 and S-217622
same,A549 cell viability,A549 cells; 1.5625 nM,99.46%
same,A549 cell viability,A549 cells; 3.125 nM,98.65%
same,A549 cell viability,A549 cells; 6.25 nM,98.82%
same,A549 cell viability,A549 cells; 12.5 nM,98.93%
same,A549 cell viability,A549 cells; 25 nM,98.71%
same,A549 cell viability,A549 cells; 50 nM,98.76%
same,A549 cell viability,A549 cells; 100 nM,98.69%
same,A549 cell viability,A549 cells; 200 nM,95.01%
same,A549 cell viability,A549 cells; 400 nM,93.02%
same,inhibitory rate on A549 cells compared with positive drugs,A549 cells; at any concentration,lower than that of PF-07321332 and S-217622
Cn1cc2cc(/N=c3\[nH]c(=O)n(Cc4cnn[nH]4)c(=O)n3Cc3ccccc3)c(Cl)cc2n1 [Compound 2],IC50,SARS-CoV-2 3CL^pro; class symbols,500 to 1000 nM
Cc1ccc(Cn2c(=O)n(Cc3cnn[nH]3)c(=O)[nH]/c2=N\c2cc3cn(C)nc3cc2Cl)cc1 [Compound 3],IC50,SARS-CoV-2 3CL^pro; class symbols,500 to 1000 nM
Cn1cc2cc(/N=c3\[nH]c(=O)n(Cc4cnn[nH]4)c(=O)n3Cc3ccc(C(C)(C)C)cc3)c(Cl)cc2n1 [Compound 4],IC50,SARS-CoV-2 3CL^pro; class symbols,500 to 1000 nM
Cn1cc2cc(/N=c3\[nH]c(=O)n(Cc4cnn[nH]4)c(=O)n3Cc3ccc([N+](=O)[O-])cc3)c(Cl)cc2n1 [Compound 5],IC50,SARS-CoV-2 3CL^pro; class symbols,200 to 500 nM
COc1ccc(Cn2c(=O)n(Cc3cnn[nH]3)c(=O)[nH]/c2=N\c2cc3cn(C)nc3cc2Cl)cc1 [Compound 6],IC50,SARS-CoV-2 3CL^pro; class symbols,> 1000 nM
Cn1cc2cc(/N=c3\[nH]c(=O)n(Cc4cnn[nH]4)c(=O)n3Cc3ccc(OC(F)(F)F)cc3)c(Cl)cc2n1 [Compound 7],IC50,SARS-CoV-2 3CL^pro,< 100 nM
same,IC50,SARS-CoV-2 3CL^pro; class symbols,< 100 nM
Cn1cc2cc(/N=c3\[nH]c(=O)n(Cc4cnn[nH]4)c(=O)n3Cc3ccc(F)cc3)c(Cl)cc2n1 [Compound 8],IC50,SARS-CoV-2 3CL^pro; class symbols,200 to 500 nM
Cn1cc2cc(/N=c3\[nH]c(=O)n(Cc4cnn[nH]4)c(=O)n3Cc3ccc(Cl)cc3)c(Cl)cc2n1 [Compound 9],IC50,SARS-CoV-2 3CL^pro; class symbols,200 to 500 nM
Cn1cc2cc(/N=c3\[nH]c(=O)n(Cc4cnn[nH]4)c(=O)n3Cc3ccc(C(F)(F)F)cc3)c(Cl)cc2n1 [Compound 12],HEPG2 cell viability,HepG2 cells; 1.5625 nM,95.73%
same,HEPG2 cell viability,HepG2 cells; 3.125 nM,95.07%
same,HEPG2 cell viability,HepG2 cells; 6.25 nM,93.31%
same,HEPG2 cell viability,HepG2 cells; 12.5 nM,90.22%
same,HEPG2 cell viability,HepG2 cells; 25 nM,88.36%
same,HEPG2 cell viability,HepG2 cells; 50 nM,86.83%
same,HEPG2 cell viability,HepG2 cells; 100 nM,86.63%
same,HEPG2 cell viability,HepG2 cells; 200 nM,81.38%
same,HEPG2 cell viability,HepG2 cells; 400 nM,76.67%
same,HepG2 cell viability compared with positive drugs,HepG2 cells; at 12.5 nM and lower,higher than that of PF-07321332 and S-217622
same,toxicity on HepG2 cells compared with positive drugs,HepG2 cells; at 400 nM and 200 nM,slightly higher than that of PF-07321332 and S-217622
same,IC50,SARS-CoV-2 3CL^pro,178 nM
same,inhibition at 0.0001 µM,SARS-CoV-2 3CL^pro,0.76%
same,inhibition at 0.001 µM,SARS-CoV-2 3CL^pro,2.33%
same,inhibition at 0.005 µM,SARS-CoV-2 3CL^pro,5.73%
same,inhibition at 0.01 µM,SARS-CoV-2 3CL^pro,8.52%
same,inhibition at 0.02 µM,SARS-CoV-2 3CL^pro,12.1%
same,inhibition at 0.03 µM,SARS-CoV-2 3CL^pro,16.5%
same,inhibition at 0.05 µM,SARS-CoV-2 3CL^pro,21.2%
same,inhibition at 0.1 µM,SARS-CoV-2 3CL^pro,37.2%
same,inhibition at 0.5 µM,SARS-CoV-2 3CL^pro,68.7%
same,inhibition at 1 µM,SARS-CoV-2 3CL^pro,88.6%
same,HEK293 cell viability,HEK293 cells; 1.5625 nM,93.67%
same,HEK293 cell viability,HEK293 cells; 3.125 nM,93.03%
same,HEK293 cell viability,HEK293 cells; 6.25 nM,92.31%
same,HEK293 cell viability,HEK293 cells; 12.5 nM,90.69%
same,HEK293 cell viability,HEK293 cells; 25 nM,84.22%
same,HEK293 cell viability,HEK293 cells; 50 nM,82.91%
same,HEK293 cell viability,HEK293 cells; 100 nM,81.24%
same,HEK293 cell viability,HEK293 cells; 200 nM,80.57%
same,HEK293 cell viability,HEK293 cells; 400 nM,78.23%
same,HEK293 cell viability compared with positive drugs,HEK293 cells; at 12.5 nM and lower,higher than that of PF-07321332 and S-217622
same,toxicity on HEK293 cells compared with positive drugs,HEK293 cells; at 400 nM and 200 nM,slightly higher than that of PF-07321332 and S-217622
same,A549 cell viability,A549 cells; 1.5625 nM,98.52%
same,A549 cell viability,A549 cells; 3.125 nM,97.34%
same,A549 cell viability,A549 cells; 6.25 nM,96.55%
same,A549 cell viability,A549 cells; 12.5 nM,97.32%
same,A549 cell viability,A549 cells; 25 nM,96.21%
same,A549 cell viability,A549 cells; 50 nM,98.03%
same,A549 cell viability,A549 cells; 100 nM,96.61%
same,A549 cell viability,A549 cells; 200 nM,94.13%
same,A549 cell viability,A549 cells; 400 nM,90.13%
same,A549 cell viability compared with positive drugs,A549 cells; at 12.5 nM and lower,higher than that of PF-07321332 and S-217622
same,toxicity on A549 cells compared with positive drugs,A549 cells; at 400 nM and 200 nM,slightly higher than that of PF-07321332 and S-217622
Cc1cc(C)cc(Cn2c(=O)n(Cc3cnn[nH]3)c(=O)[nH]/c2=N\c2cc3cn(C)nc3cc2Cl)c1 [Compound 13],IC50,SARS-CoV-2 3CL^pro; class symbols,500 to 1000 nM
